Measured values as given in patent publication US8614236B2 (University of Washington, priority 2006, dated 2013).

System: unanesthetized dogs
Assay: Effect of inhaled acetazolamide in unanesthetized dogs during hypoxia (vs iv and oral)
Format: in vivo, dog
[1] = inhaled 750 mg after 1 h of normoxia, hypoxia 2nd h
[2] = inhaled 750 mg after 1 h of normoxia, hypoxia 3rd h
[3] = inhaled 750 mg after 1 h of normoxia, normoxia 1st h
[4] = iv 2 mg/kg bolus + 2 mg/kg/h, hypoxia 2nd h
[5] = iv 2 mg/kg bolus + 2 mg/kg/h, hypoxia 3rd h
[6] = iv 2 mg/kg bolus + 2 mg/kg/h, normoxia 1st h
[7] = oral 5 mg/kg -12 h and -1 h, hypoxia 2nd h
[8] = oral 5 mg/kg -12 h and -1 h, hypoxia 3rd h
[9] = oral 5 mg/kg -12 h and -1 h, normoxia 1st h

**Q.** How did the BEa [1] turn out when CC(=O)Nc1nnc(S(N)(=O)=O)s1 [AZ, acetazolamide] was run?
**A.** -5.2 ± 0.6 mM

**Q.** What about the CO [1] of the same compound?
**A.** 2.3 ± 0.2 L/min

**Q.** And the CVP [1]?
**A.** 2.5 ± 0.3 cmH2O

**Q.** What about the GFR [1] of the same compound?
**A.** 3.7 ± 0.3 mL·min

**Q.** What about the HCO3a [1] of the same compound?
**A.** 17.1 ± 0.6 mM

**Q.** And the HR [1]?
**A.** 86 ± 6 beats/min

**Q.** And the MAP [1]?
**A.** 105 ± 5 mmHg

**Q.** What about the MPAP [1] of the same compound?
**A.** 15 ± 1 mmHg

**Q.** What about the PCWP [1] of the same compound?
**A.** 3.9 ± 0.4 cmH2O

**Q.** And the PVR [1]?
**A.** 395 ± 29 dyn s^−1 cm

**Q.** What about the PaCO2 [1] of the same compound?
**A.** 26 ± 1 Torr

**Q.** What about the PaO2 [1] of the same compound?
**A.** 39 ± 1 Torr

**Q.** And the UNaV [1]?
**A.** 8.0 ± 1.3 µmol·min

**Q.** And the UV [1]?
**A.** 99 ± 16 μ min^−1 kg^−1

**Q.** What about the VE [1] of the same compound?
**A.** 5.5 ± 0.5 L/min

**Q.** And the BEa [2]?
**A.** -5.7 ± 0.7 mM

**Q.** What about the CO [2] of the same compound?
**A.** 2.5 ± 0.1 L/min

**Q.** And the CVP [2]?
**A.** 2.1 ± 0.2 cmH2O

**Q.** What about the GFR [2] of the same compound?
**A.** 3.6 ± 0.3 mL·min

**Q.** And the HCO3a [2]?
**A.** 16.4 ± 0.5 mM

**Q.** What about the HR [2] of the same compound?
**A.** 100 ± 8 beats/min

**Q.** What about the MAP [2] of the same compound?
**A.** 105 ± 5 mmHg

**Q.** What about the MPAP [2] of the same compound?
**A.** 15 ± 1 mmHg

**Q.** And the PCWP [2]?
**A.** 3.6 ± 0.2 cmH2O

**Q.** What about the PVR [2] of the same compound?
**A.** 388 ± 30 dyn s^−1 cm

**Q.** And the PaCO2 [2]?
**A.** 25 ± 1 Torr

**Q.** And the PaO2 [2]?
**A.** 36 ± 1 Torr

**Q.** What about the UNaV [2] of the same compound?
**A.** 5.1 ± 0.7 µmol·min

**Q.** What about the UV [2] of the same compound?
**A.** 81 ± 15 μ min^−1 kg^−1

**Q.** What about the VE [2] of the same compound?
**A.** 5.7 ± 0.4 L/min

**Q.** What about the BEa [3] of the same compound?
**A.** -3.9 ± 0.6 mM

**Q.** What about the CO [3] of the same compound?
**A.** 2.5 ± 0.1 L/min

**Q.** And the CVP [3]?
**A.** 2.8 ± 0.3 cmH2O

**Q.** And the GFR [3]?
**A.** 4.0 ± 0.4 mL·min

**Q.** What about the HCO3a [3] of the same compound?
**A.** 20.2 ± 0.5 mM

**Q.** And the HR [3]?
**A.** 85 ± 5 beats/min

**Q.** And the MAP [3]?
**A.** 92 ± 4 mmHg

**Q.** And the MPAP [3]?
**A.** 13 ± 1 mmHg

**Q.** What about the PCWP [3] of the same compound?
**A.** 4.3 ± 0.4 cmH2O

**Q.** And the PVR [3]?
**A.** 298 ± 21 dyn s^−1 cm

**Q.** What about the PaCO2 [3] of the same compound?
**A.** 36 ± 1 Torr

**Q.** And the PaO2 [3]?
**A.** 101 ± 2 Torr

**Q.** And the UNaV [3]?
**A.** 0.4 ± 0.1 µmol·min

**Q.** And the UV [3]?
**A.** 33 ± 8 μ min^−1 kg^−1

**Q.** What about the VE [3] of the same compound?
**A.** 3.2 ± 0.2 L/min

**Q.** And the “pulmonary vascular response to hypoxia” value (inhaled, 12% oxygen for two hours)?
**A.** successful in reducing

**Q.** And the BEa [4]?
**A.** -4.6 ± 0.4 mM

**Q.** What about the CO [4] of the same compound?
**A.** 3.0 ± 0.4 L/min

**Q.** What about the CVP [4] of the same compound?
**A.** 2.2 ± 0.3 cmH2O

**Q.** And the GFR [4]?
**A.** 3.4 ± 0.3 mL·min

**Q.** And the HCO3a [4]?
**A.** 18.5 ± 0.5 mM

**Q.** And the HR [4]?
**A.** 103 ± 6 beats/min

**Q.** And the MAP [4]?
**A.** 102 ± 8 mmHg

**Q.** What about the MPAP [4] of the same compound?
**A.** 15 ± 1 mmHg

**Q.** What about the PCWP [4] of the same compound?
**A.** 3.5 ± 0.3 cmH2O

**Q.** What about the PVR [4] of the same compound?
**A.** 312 ± 36 dyn s^−1 cm

**Q.** What about the PaCO2 [4] of the same compound?
**A.** 30 ± 1 Torr

**Q.** What about the PaO2 [4] of the same compound?
**A.** 37 ± 1 Torr

**Q.** What about the UNaV [4] of the same compound?
**A.** 4.0 ± 0.6 µmol·min

**Q.** What about the UV [4] of the same compound?
**A.** 135 ± 27 μ min^−1 kg^−1

**Q.** And the VE [4]?
**A.** 6.5 ± 0.5 L/min

**Q.** What about the BEa [5] of the same compound?
**A.** -6.1 ± 0.6 mM

**Q.** And the CO [5]?
**A.** 2.9 ± 0.5 L/min

**Q.** What about the CVP [5] of the same compound?
**A.** 2.3 ± 0.4 cmH2O

**Q.** What about the GFR [5] of the same compound?
**A.** 3.8 ± 0.3 mL·min

**Q.** And the HCO3a [5]?
**A.** 17.1 ± 0.5 mM

**Q.** What about the HR [5] of the same compound?
**A.** 106 ± 7 beats/min

**Q.** What about the MAP [5] of the same compound?
**A.** 103 ± 7 mmHg

**Q.** And the MPAP [5]?
**A.** 14 ± 1 mmHg

**Q.** What about the PCWP [5] of the same compound?
**A.** 3.7 ± 0.3 cmH2O

**Q.** What about the PVR [5] of the same compound?
**A.** 305 ± 26 dyn s^−1 cm

**Q.** What about the PaCO2 [5] of the same compound?
**A.** 27 ± 1 Torr

**Q.** What about the PaO2 [5] of the same compound?
**A.** 38 ± 1 Torr

**Q.** And the UNaV [5]?
**A.** 5.4 ± 1.2 µmol·min

**Q.** And the UV [5]?
**A.** 68 ± 12 μ min^−1 kg^−1

**Q.** What about the VE [5] of the same compound?
**A.** 6.9 ± 0.5 L/min

**Q.** And the BEa [6]?
**A.** -4.0 ± 0.5 mM

**Q.** What about the CO [6] of the same compound?
**A.** 2.6 ± 0.2 L/min

**Q.** What about the CVP [6] of the same compound?
**A.** 1.8 ± 0.3 cmH2O

**Q.** And the GFR [6]?
**A.** 3.5 ± 0.3 mL·min

**Q.** What about the HCO3a [6] of the same compound?
**A.** 20.2 ± 0.4 mM

**Q.** What about the HR [6] of the same compound?
**A.** 74 ± 4 beats/min

**Q.** And the MAP [6]?
**A.** 95 ± 5 mmHg

**Q.** What about the MPAP [6] of the same compound?
**A.** 13 ± 1 mmHg

**Q.** What about the PCWP [6] of the same compound?
**A.** 3.8 ± 0.5 cmH2O

**Q.** And the PVR [6]?
**A.** 283 ± 37 dyn s^−1 cm

**Q.** And the PaCO2 [6]?
**A.** 34 ± 1 Torr

**Q.** And the PaO2 [6]?
**A.** 107 ± 3 Torr

**Q.** What about the UNaV [6] of the same compound?
**A.** 3.8 ± 0.6 µmol·min

**Q.** And the UV [6]?
**A.** 102 ± 12 μ min^−1 kg^−1

**Q.** And the VE [6]?
**A.** 4.1 ± 0.4 L/min

**Q.** And the BEa [7]?
**A.** -6.3 ± 0.6 mM

**Q.** And the CO [7]?
**A.** 2.7 ± 0.2 L/min

**Q.** What about the CVP [7] of the same compound?
**A.** 1.9 ± 0.2 cmH2O

**Q.** What about the GFR [7] of the same compound?
**A.** 3.3 ± 0.2 mL·min

**Q.** And the HCO3a [7]?
**A.** 16.7 ± 0.6 mM

**Q.** And the HR [7]?
**A.** 109 ± 5 beats/min

**Q.** And the MAP [7]?
**A.** 106 ± 6 mmHg

**Q.** And the MPAP [7]?
**A.** 17 ± 1 mmHg

**Q.** And the PCWP [7]?
**A.** 3.5 ± 0.3 cmH2O

**Q.** And the PVR [7]?
**A.** 375 ± 33 dyn s^−1 cm

**Q.** What about the PaCO2 [7] of the same compound?
**A.** 28 ± 1 Torr

**Q.** What about the PaO2 [7] of the same compound?
**A.** 37 ± 1 Torr

**Q.** What about the UNaV [7] of the same compound?
**A.** 1.7 ± 0.5 µmol·min

**Q.** And the UV [7]?
**A.** 84 ± 15 μ min^−1 kg^−1

**Q.** And the VE [7]?
**A.** 6.6 ± 0.4 L/min

**Q.** And the BEa [8]?
**A.** -6.4 ± 0.4 mM

**Q.** What about the CO [8] of the same compound?
**A.** 2.3 ± 0.1 L/min

**Q.** What about the CVP [8] of the same compound?
**A.** 1.9 ± 0.2 cmH2O

**Q.** What about the GFR [8] of the same compound?
**A.** 3.3 ± 0.2 mL·min

**Q.** And the HCO3a [8]?
**A.** 16.1 ± 0.4 mM

**Q.** What about the HR [8] of the same compound?
**A.** 102 ± 7 beats/min

**Q.** What about the MAP [8] of the same compound?
**A.** 107 ± 6 mmHg

**Q.** What about the MPAP [8] of the same compound?
**A.** 17 ± 1 mmHg

**Q.** And the PCWP [8]?
**A.** 3.5 ± 0.3 cmH2O

**Q.** And the PVR [8]?
**A.** 431 ± 45 dyn s^−1 cm

**Q.** What about the PaCO2 [8] of the same compound?
**A.** 26 ± 1 Torr

**Q.** What about the PaO2 [8] of the same compound?
**A.** 37 ± 1 Torr

**Q.** And the UNaV [8]?
**A.** 1.5 ± 0.4 µmol·min

**Q.** What about the UV [8] of the same compound?
**A.** 55 ± 8 μ min^−1 kg^−1

**Q.** And the VE [8]?
**A.** 6.3 ± 0.2 L/min

**Q.** What about the BEa [9] of the same compound?
**A.** -6.5 ± 0.3 mM

**Q.** What about the CO [9] of the same compound?
**A.** 2.3 ± 0.2 L/min

**Q.** And the CVP [9]?
**A.** 2.3 ± 0.3 cmH2O

**Q.** And the GFR [9]?
**A.** 3.0 ± 0.2 mL·min

**Q.** And the HCO3a [9]?
**A.** 17.6 ± 0.3 mM

**Q.** What about the HR [9] of the same compound?
**A.** 85 ± 3 beats/min

**Q.** And the MAP [9]?
**A.** 95 ± 3 mmHg

**Q.** What about the MPAP [9] of the same compound?
**A.** 12 ± 1 mmHg

**Q.** What about the PCWP [9] of the same compound?
**A.** 3.9 ± 0.3 cmH2O

**Q.** And the PVR [9]?
**A.** 298 ± 27 dyn s^−1 cm

**Q.** And the PaCO2 [9]?
**A.** 32 ± 1 Torr

**Q.** And the PaO2 [9]?
**A.** 108 ± 2 Torr

**Q.** What about the UNaV [9] of the same compound?
**A.** 1.4 ± 0.6 µmol·min

**Q.** What about the UV [9] of the same compound?
**A.** 50 ± 9 μ min^−1 kg^−1

**Q.** What about the VE [9] of the same compound?
**A.** 4.6 ± 0.3 L/min
